Broadly, the melting point is the temperature of the solid-liquid transition.

We go through 88 compounds from a melting point compilation (Tetko et al.; mined from patent text by program, amines drawn as free bases though some values may be those of a salt).

As for `CSc1nnc(C(O)(c2ccc(Cl)cc2)c2ccc3nc(C)cc(-c4cccc(Cl)c4)c3c2)n1C` (stereo not drawn), the melting point came to 142 °C.

In turn, `CC(C)(C)OC(=O)N1CCN(c2nc(N)c3nc(-c4ccccc4)c(N)nc3n2)CC1` came in with a melting point of 240 to 242 °C.

For `N#Cc1cc([N+](=O)[O-])ccc1N1CCC(O)CC1`, the melting point lay in the range of 114 to 115 °C.

Compound `c1ccc(-c2cnc3ccccc3n2)cc1` displayed a melting point of 77 °C.

`CCN(CC)CCN1CCN(Cc2ccc(O)cc2)C(c2ccccc2)C1` (stereo not drawn) returned a melting point of 108 to 112 °C.

`O=C1CCC(c2ccc3c(c2)NC(=O)CS3)=NN1` yielded a melting point of 299 to 302 °C.

In turn, `CC(Oc1cc2sc(NC(=O)NCCN3CCOCC3)nc2cc1Cl)c1c(Cl)ccc(F)c1Cl` (stereo not drawn) gave a melting point of 196 to 198 °C.

Compound `C[C@H]1C(S(=O)(=O)c2ccccc2)C=C(Sc2ccccc2)CC[C@H]1O[Si](C)(C)C` (stereo partly drawn) gave a melting point of 114 to 116 °C.

For the compound `CNC(=S)C1(c2cccc(C)n2)CCCO1` (stereo not drawn), the melting point was 151 °C.

`CC(C)(C)OC(=O)Nc1cc(-c2nnc(CCc3cccc(C(F)(F)F)c3)o2)ccn1` displayed a melting point of 256 to 257 °C.

In turn, `Cc1c(Oc2nccs2)ccc(C(=O)O)c1Cl` gave a melting point of 150 to 152 °C.

In the case of `COc1ccc(C)c(O)c1`, the melting point fell in the range of 34 to 35 °C.

In the case of `O=C(Nc1cc(Cl)ccc1S(=O)(=O)c1ccccc1)N[C@@H](Cc1ccc(NC(=O)c2c(Cl)cncc2Cl)cc1)C(=O)O`, the melting point is 204 °C.

Compound `Cc1ccc(S(=O)(=O)NC(=O)OCCc2ccc(-n3c(CCCc4cccnc4)nc4cc(C(F)(F)F)c(Cl)cc43)cc2)cc1` gave a melting point of 90 to 95 °C.

With `COc1ccc(-c2ncc(Cl)nc2-c2ccc(OC)cc2)cc1`, the melting point is 126 to 127 °C.

With `N#Cc1c[nH]c2cccc(OCc3ccccc3)c12`, the melting point fell in the range of 139 to 141 °C.

The compound `COC1=C(OC)C(=O)C2=C(CCC(CCOc3cc(OC)c(OC)c(OC)c3)CC2)C1=O` gave a melting point of 91 to 93 °C.

In the case of `O=C(c1cc(N2CCC(N3CCCC3)CC2)ccn1)N(O)Cc1ccccc1`, the melting point lay within 135 to 140 °C.

The compound `CN(C)S(=O)(=O)c1c(C(F)(F)F)nn(-c2c(Cl)cc(C(F)(F)F)cc2Cl)c1N` showed a melting point of 178 to 179 °C.

Compound `Cc1cn2c(nc1=O)CCCCC2` displayed a melting point of 202 °C.

Compound `CCCCCCCCCCCCCC(=O)Nc1cc(NC(=O)CCCCCCCCCCCCC)cc(C(=O)N(CC(=O)O)CC(=O)O)c1` came in with a melting point of 109 to 111 °C.

Compound `CCC(=O)N(Cc1ccc(OC)cc1)c1cc(F)cc(-c2nnn[nH]2)c1` came in with a melting point of 158 to 160 °C.

`O=C(Nc1cc(C(F)(F)F)nc(C(F)(F)F)c1)C(=O)Nc1cc(C(F)(F)F)nc(C(F)(F)F)c1` had a melting point of 271 to 272 °C.

With `Cc1csc2c(C(=O)O)c(=O)c3cc4c(cc3n12)OCO4`, the melting point was 303 to 305 °C.

Regarding `COC(=O)c1ccc2nc3c(nc2c1)SC(C#N)=C(C#N)S3`, the melting point is 133 to 135 °C.

As for `CC(C)c1ccc(N(C)C(=O)Cn2cnc3[nH]c(=O)n(C)c(=O)c32)cc1`, the melting point lay in the range of 271 to 273 °C.

`O=C(O)C(c1ccccc1)N1C(=O)c2cccc([N+](=O)[O-])c2C1=O` (stereo not drawn) returned a melting point of 213 to 229 °C.

For `CNC(=O)Cc1ncc2c(n1)-c1ccc(Cl)cc1C(c1ccccc1F)=NC2`, the melting point fell in the range of 175 to 177 °C.

In turn, `Nc1n[nH]c(NC(=O)c2ccc3ccccc3c2)n1` had a melting point of 192 to 194 °C.

With `N#CCCSC1C2=C(CCCC2)C(=O)N1c1ccc(Cl)cc1F` (stereo not drawn), the melting point was in the range of 101 to 103 °C.

Compound `Cc1c(F)c(N2CCC(n3cncn3)C2)c(F)c2c1c(=O)c(C(=O)O)cn2C1CC1` (stereo not drawn) displayed a melting point of 207 to 210 °C.

With `CC(=O)OCCOc1ccc2oc3cc(C#N)ccc3c(=O)c2c1`, the melting point lay within 194 to 196 °C.

`COc1cc(OCC(=O)N[C@H]2CCN(Cc3ccccc3)C2)ccc1C(=NN)C(=O)c1ccc(O)c(N)c1` yielded a melting point of 139 to 141 °C.

As to `CC(=O)Oc1ccc2ccc(=O)oc2c1CC(Br)CBr` (stereo not drawn), the melting point was in the range of 123 to 124 °C.

Compound `Cc1c(C(=O)O)c(CC(=O)O)n(C)c1C(=O)c1ccc(Cl)cc1` showed a melting point of 253 to 254 °C.

Regarding `CSc1[nH]c(-c2ccccc2C)cc1C#N`, the melting point lay within 148 to 149 °C.

Regarding `C/C(=N\O)[C@H]1CC[C@H]2[C@@H]3CCC4=CC(=O)CC[C@]4(C)[C@H]3CC[C@]12C`, the melting point was in the range of 220 to 221 °C.

The compound `COc1cc(-c2cc(C(F)(F)F)nn2-c2ccc(S(C)(=O)=O)c(F)c2)ccc1-c1cscn1` came in with a melting point of 155 to 157 °C.

Consider `CCOP(=O)(CC(=O)Nc1cc2c(Nc3ccc(Cl)c(Cl)c3)ncnc2cn1)OCC`, for which the melting point was 121 to 124 °C.

The compound `Cc1[nH]cnc1Cc1cccc(CO)c1O` came in with a melting point of 126 to 130 °C.

As for `NC(=O)NC1CCN(Cc2ccccc2)CC1`, the melting point turned out to be 140 °C.

The compound `COC(=O)c1cn2c(C(F)(F)F)nnc2c2ccccc12` came in with a melting point of 170 °C.

Take `CCOC(=O)Cn1c2c([nH]c(=O)c1=O)CCC1=C2C=C([N+](=O)[O-])CC1`: the melting point is 217 to 219 °C.

`Cc1c(Cl)csc1-c1nc(-c2c(F)cccc2Cl)nn1C` returned a melting point of 117 to 118 °C.

`Cc1ccc(S(=O)(=O)N2CCCC2c2cccc(Cl)c2)cc1` (racemic) registered a melting point of 107 °C.

Take `COc1ccc(CNc2nnc(NCCCO)c3ccc(Cl)cc23)cc1Cl`: the melting point is 131 to 138 °C.

`CN1C(=O)C(c2ccccc2)(C23CC4CC(CC(C4)C2)C3)N=C1N` (stereo not drawn) yielded a melting point of 250 °C.

Regarding `O=C(c1ccc(F)cc1)C1CCN(S(=O)(=O)c2ccccc2)CC1`, the melting point is 106 to 109 °C.

In turn, `CCCOc1ccc(CCCOc2ccc3c(c2)C=C(C(=O)O)CCS3(=O)=O)cc1` showed a melting point of 168 to 170 °C.

As for `O=C(O)c1cc2cc(F)ccc2n1Cc1ccncc1`, the melting point lay in the range of 282 to 283 °C.

For the compound `CC(C)Cc1csc(NC(=O)OC(C)(C)C)c1C(=O)O`, the melting point lay within 154 to 155 °C.

Regarding `COc1cc(COc2nn(-c3ccccc3)cc2C(N)=O)ccc1OCc1nc(-c2ccccc2)oc1C`, the melting point fell in the range of 190 to 191 °C.

`CN(C(=O)c1ccc2nonc2c1)C1CCOC(=O)C1` (stereo not drawn) displayed a melting point of 169 to 171 °C.

The compound `CCOC(=O)C(Cc1c[nH]c2ccccc12)(NC=O)C(=O)OCC` had a melting point of 179 to 180 °C.

Compound `CC1CC(=O)NN=C1c1ccc(NCC(C)(C)N)cc1` (stereo not drawn) registered a melting point of 184 to 185 °C.

In turn, `CCOC(=O)c1sc(N)nc1-c1ccc(F)cc1` registered a melting point of 205 to 208 °C.

As to `CCOC(=O)COc1cc(F)c(-c2nn(C)c(C(F)(F)F)c2Cl)cc1[N+](=O)[O-]`, the melting point is 95 to 96 °C.

`COC1=Cc2ccccc2Nc2ccccc21` displayed a melting point of 124 °C.

`CNC(=O)c1ccccc1Nc1nc(Nc2cc3c(cc2OC)C(=O)N(C)CCC3)ncc1Cl` registered a melting point of 152 to 154 °C.

Take `CCOC(=O)c1n[nH]c(CC)c1Sc1cc(Cl)cc(Cl)c1`: the melting point fell in the range of 138 to 139 °C.

In turn, `Cc1nc(N)c2nc(C)n(NCCCNS(C)(=O)=O)c2c1C` had a melting point of 215 to 217 °C.

With `Cc1cc(C)c2cccc(OCc3c(Cl)ccc(S(=O)(=O)N4CCC[C@H]4C(=O)N4CCN(C(=O)c5cccc(C=NN)c5)CC4)c3Cl)c2n1`, the melting point turned out to be 158 °C.

For the compound `CC(=O)OC(C)(C(=O)O)c1ccc(-c2ccccc2)c(F)c1` (stereo not drawn), the melting point was in the range of 125 to 127 °C.

As for `O=C(c1cnccn1)N1CCN(Cc2ccc3c(c2)-c2[nH]nc(-c4ccsc4)c2C3)CC1`, the melting point lay in the range of 254 to 259 °C.

Turning to `CCOC(=O)CNC(=O)c1cc(C(=O)c2ccccc2Cl)c(N)s1`, the melting point was 216 to 218 °C.

The compound `COc1c(Cl)ccnc1CSc1nc2cc(OC(F)F)ccc2[nH]1` displayed a melting point of 94 to 99 °C.

`COC(=O)C(CO)NC(=O)c1cc2cc(Cl)ccc2[nH]1` (stereo not drawn) registered a melting point of 153 to 155 °C.

For `CC(=O)CN1CCc2c(c(=O)oc3cc(C)c([N+](=O)[O-])cc23)C1`, the melting point lay in the range of 166 to 168 °C.

Turning to `CCOC(=O)COc1cc2cc(C(O)CC)sc2c(Cl)c1Cl` (stereo not drawn), the melting point is 69 to 70 °C.

`Cc1ccc(C)c(OCCCC(C)(C)C(=O)Nc2cccc([N+](=O)[O-])c2)c1` returned a melting point of 93 to 94 °C.

Compound `Cc1ccc(CN2CCC3(CC2)CSC2=C(O3)c3ccccc3C(=O)C2=O)cc1` yielded a melting point of 156 to 158 °C.

The compound `CN1C(=O)[C@@H](NC(=O)[C@H](N)Cc2ccccc2)N=C(C2CCCCC2)c2ccccc21` gave a melting point of 75 to 78 °C.

For `CC12CCC(=O)C=C1CCN(C(=O)OCc1ccccc1)C2` (stereo not drawn), the melting point came out at 128 °C.

Turning to `CCCC[C@]12OC1CC[C@]1(C)CC[C@@H]3C[C@@]12OC3(C)C` (stereo partly drawn), the melting point is 70 to 72 °C.

Compound `c1cncc(-c2cnc3ccccc3c2)c1` yielded a melting point of 117 to 119 °C.

For the compound `CCOC(=O)C(C)(C)NC(=O)c1nnc2ccc(Cl)nn12`, the melting point was in the range of 132 to 133 °C.

`CC(=O)N(Cc1ccccc1)c1c(F)c(F)cc(F)c1C(=O)O` yielded a melting point of 150 to 153 °C.

Compound `CC1=Nc2c(F)c(F)c(F)c(F)c2SN1` yielded a melting point of 290 to 291 °C.

As to `CCNC(=O)c1ccccc1NC(C)(C)C`, the melting point lay within 37 to 40 °C.

`O=C(CCc1cccnc1)NCCCCC1CCN(C(=O)Nc2cccc3ccccc23)CC1` yielded a melting point of 143 to 144 °C.

For the compound `CC(C)Nc1c(-c2c(F)cc(F)cc2F)c(Cl)nc2nncn12`, the melting point lay in the range of 268 to 273 °C.

With `COC(=O)c1ccc(OCc2ccc(Cl)cc2)cc1OCc1ccccc1`, the melting point lay within 99 to 101 °C.

`CCOC(=O)c1csc2cc(O)ccc12`: the melting point is 128 to 129 °C.

The compound `N#Cc1ccc(C(=O)N2CCc3c(n(Cc4cccc(C#N)c4)c4ccccc34)C2)cc1` came in with a melting point of 178 to 180 °C.

On to `COc1ccc(CCCc2ccc(O)cc2)c(O)c1`, for which the melting point is 95 to 96 °C.

Consider `COc1ccc(-c2sc(N)c(C(=O)c3ccc(Cl)cc3)c2CN(C2CCCCC2)C2CCCCC2)cc1`, for which the melting point was 178 to 182 °C.

Consider `Cc1cc(C#N)c(O)c(C(=O)O)c1`, for which the melting point is 213 to 214 °C.

Compound `CC(C)Cc1ccc2c(c1)C(CO)c1cc(CC(C)C)ccc1-2` gave a melting point of 105 °C.
